Entries after “also recorded” stand apart in the source; their conditions may differ.
Tests used:
Assay type in all cases: cell-based
[1] = test system: blood cancer cell line (Daudi); test: MTS assay, cancer cell proliferation inhibition, blood cancer cell line; settings: 500 μM oligopeptide, 72 hours, OD 490 nm, vs untreated control (FIG. 3)
Procedure: (§1) To measure the cancer cell proliferation inhibitory effect of the oligopeptides synthesized in Example 1, an MTS (3-(4,5-dimethylthiazol-2-y)-5-(3-carboxymethoxyphenyl)-2-(4-sulfophenyl)-2H-tetrazolium, inner salt) assay for cancer cells was performed. Specifically, each of a lung cancer cell line (H1975), a breast cancer cell line (MDA-MB-231) and a blood cancer cell line (Daudi), which were cultured in 96-well microplates, was treated with 500 μM of the oligopeptides synthesized in Example 1, and incubated in a 37° C. incubator for 72 hours. Each cell culture was treated with an MTS reagent and incubated in a 37° C. incubator for 30 minutes or more, and absorbance (OD) was measured at 490 nm.

[2] = test system: breast cancer cell line (MDA-MB-231); test: MTS assay, cancer cell proliferation inhibition, breast cancer cell line; settings: MDA-MB-231, 500 μM oligopeptide, 72 hours, OD 490 nm, vs untreated control (FIG. 2)
Procedure: as §1

[3] = test system: lung cancer cell line (H1975); test: MTS assay, cancer cell proliferation inhibition, lung cancer cell line; settings: H1975, 500 μM oligopeptide, 72 hours, OD 490 nm, vs untreated control (FIG. 1)
Procedure: as §1

Sequence | cancer cell proliferation inhibitory activity [1] | cancer cell proliferation inhibitory effect [2] | cancer cell proliferation inhibitory activity [3]
ATWPDTVRQL (pep #1) | better cancer cell proliferation inhibitory activity than an untreated control |  | 
WPDTVRQLAL (pep #3) | better cancer cell proliferation inhibitory activity than an untreated control | better cancer cell proliferation inhibitory effect than an untreated control; also recorded: excellent cancer cell proliferation inhibitory effects | 
CSKYSYKGLK (pep #4) | better cancer cell proliferation inhibitory activity than an untreated control | better cancer cell proliferation inhibitory effect than an untreated control | 
TSATWPDTVR (pep #2) | better cancer cell proliferation inhibitory activity than an untreated control | better cancer cell proliferation inhibitory effect than an untreated control | 
QTVMTSATWP (pep #6) | better cancer cell proliferation inhibitory activity than an untreated control |  | excellent cancer cell proliferation inhibitory effects
SICIYGGRNR (pep #7) | better cancer cell proliferation inhibitory activity than an untreated control | better cancer cell proliferation inhibitory effect than an untreated control; also recorded: excellent cancer cell proliferation inhibitory effects | excellent cancer cell proliferation inhibitory effects
SREQRNGPGM (pep #9) |  |  | excellent cancer cell proliferation inhibitory effects
GMLVLTPTRE (pep #8) | better cancer cell proliferation inhibitory activity than an untreated control; also recorded: excellent cancer cell proliferation inhibitory activity | better cancer cell proliferation inhibitory effect than an untreated control | excellent cancer cell proliferation inhibitory effects
AECSKYSYKG (pep #5) | better cancer cell proliferation inhibitory activity than an untreated control; also recorded: excellent cancer cell proliferation inhibitory activity | better cancer cell proliferation inhibitory effect than an untreated control; also recorded: excellent cancer cell proliferation inhibitory effects | 
